Reference: PubChem BioAssay (NCI)
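Assay format: 96-well plates, 48-hour exposure. GI50 is the concentration that inhibits growth by half. TGI: total growth inhibition.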

What was measured:
Assay in all cases: NCI tumour cell line growth inhibition, 48 h
CAKI-1 renal = test system: CAKI-1 renal
UACC-257 melanoma = test system: UACC-257 melanoma
HCT-116 colon = test system: HCT-116 colon
K-562 leukemia = test system: K-562 leukemia
A498 renal = test system: A498 renal
NCI-H460 lung = test system: NCI-H460 lung
NCI-H226 lung = test system: NCI-H226 lung
COLO 205 colon = test system: COLO 205 colon
HT29 colon = test system: HT29 colon
SR leukemia = test system: SR leukemia

Row | Structure (SMILES) | TGI (CAKI-1 renal) | TGI (UACC-257 melanoma) | TGI (HCT-116 colon) | TGI (K-562 leukemia) | TGI (A498 renal) | TGI (NCI-H460 lung) | TGI (NCI-H226 lung) | TGI (COLO 205 colon) | TGI (HT29 colon) | TGI (SR leukemia) | GI50 (CAKI-1 renal) | GI50 (UACC-257 melanoma) | GI50 (HCT-116 colon) | GI50 (K-562 leukemia) | GI50 (A498 renal) | GI50 (NCI-H460 lung) | GI50 (NCI-H226 lung) | GI50 (COLO 205 colon) | GI50 (HT29 colon) | GI50 (SR leukemia)
1 | CC1=C(C#N)C(N)=C2C(C)=C(C#N)C(N)=C12 | > 100 µM | > 100 µM | > 100 µM | > 100 µM | > 100 µM | > 100 µM | > 100 µM | > 100 µM | > 100 µM | > 100 µM |  |  |  |  |  |  |  |  |  | 
2 | CC1(CC(=O)O)OC2CCCCCC2O1 (stereo not given) (tested in a mixture with another compound) | > 100 µM | > 100 µM | > 100 µM | > 100 µM | > 100 µM | > 100 µM | > 100 µM | > 100 µM | > 100 µM | > 100 µM |  |  |  |  |  |  |  |  |  | 
3 | Clc1ccc2c(Cl)ncnc2c1 | > 100 µM | > 100 µM | > 100 µM | > 100 µM | > 100 µM | > 100 µM | > 100 µM | > 100 µM | > 100 µM | > 100 µM |  |  |  |  |  |  |  |  |  | 
4 | C/C(=C(/c1ccc(O)cc1)c1ccc(OCCN2CCCC2)cc1)c1ccccc1 | 13.9 µM | 3.93 µM | 10.1 µM | 4.77 µM | 8.49 µM | 5.38 µM | 29.8 µM | 3.38 µM | 3.2 µM | 5.75 µM | 3.02 µM | 2.03 µM | 2.92 µM | 1.81 µM | 1.67 µM | 2.36 µM | 11.3 µM | 1.7 µM | 1.35 µM | 1.93 µM
5 | Nc1ncnc2occ(-c3ccc(NC(=O)Nc4cc(C(F)(F)F)cc(C(F)(F)F)c4)cc3)c12 | 10 µM | 6.69 µM | 5.64 µM | 9.21 µM | 1.62 µM | 6.7 µM | 4.53 µM | 7.96 µM | 5.29 µM | 15.2 µM | 2.6 µM | 3.27 µM | 2.63 µM | 0.925 µM | 0.144 µM | 3.1 µM | 0.584 µM | 4.23 µM | 1.83 µM | 2.03 µM
6 | CCOC(=O)c1[nH]c2c(c1C)-c1[nH]c(=O)c(S(=O)(=O)c3ccccc3)cc1SC2 | > 100 µM | > 100 µM | > 100 µM | > 100 µM | > 100 µM | > 100 µM | > 100 µM | 46.4 µM | > 100 µM | > 100 µM | 54.1 µM | 67.1 µM | 36.1 µM | 23.2 µM | 1.68 µM | 34.6 µM | 64.4 µM | 22.5 µM | 40.7 µM | 30.3 µM
7 | Cc1cc(CS(=O)(=O)/C=C/c2ccccc2[N+](=O)[O-])c(CS(=O)(=O)/C=C/c2ccccc2[N+](=O)[O-])cc1C | > 100 µM | > 100 µM | > 100 µM | > 100 µM | 70.9 µM | > 100 µM | 59.4 µM | > 100 µM | > 100 µM | > 100 µM |  |  |  |  |  |  |  |  |  | 
8 | CC(CS(=O)(=O)Cc1ccccc1)C(N)=O (stereo not given) | > 100 µM | > 100 µM | > 100 µM | > 100 µM | > 100 µM | > 100 µM | > 100 µM | > 100 µM | > 100 µM | > 100 µM |  |  |  |  |  |  |  |  |  | 
9 | Cc1ccc(NCSc2ccc(Cl)cc2)cc1 | > 100 µM | > 100 µM | > 100 µM | > 100 µM | > 100 µM | > 100 µM | > 100 µM | > 100 µM | > 100 µM | > 100 µM | 5.51 µM | > 100 µM | 55.4 µM | > 100 µM | 18.8 µM | > 100 µM | 44.7 µM | 5.94 µM | > 100 µM | > 100 µM
10 | COc1ccccc1Cn1cc2c(c1)-c1oncc1CC2 | > 55.8 µM | > 63.6 µM | 13.6 µM | > 33.5 µM | 3.44 µM | 4.75 µM | > 100 µM | 2.43 µM | 11.7 µM | 8.95 µM | 0.545 µM | 10.4 µM | 0.39 µM | 0.391 µM | 0.269 µM | 0.334 µM | 6.99 µM | 0.553 µM | 0.351 µM | 0.379 µM
11 | Cc1nn(-c2ccccc2)c2c1C1C(=C(c3ccc(Cl)cc3)N2)C(=O)Nc2ccccc21 (stereo not given) | > 100 µM | 25.4 µM | 14.4 µM | 46.7 µM | 26.4 µM | 10.2 µM | 36 µM | 5.63 µM | 8.61 µM | 5.58 µM | 3.04 µM | 4.33 µM | 3.55 µM | 3.33 µM | 4.01 µM | 3.17 µM | 7.34 µM | 2.49 µM | 2.89 µM | 2.15 µM
12 | COc1ccc2cccc(C(=N)c3ccc(C)c4c3CCC4)c2c1 | 16.1 µM | 18.2 µM | 15.9 µM | 10.8 µM | 5.87 µM | 16.7 µM | 26.9 µM | 25.9 µM | 15 µM | 9.03 µM |  |  |  |  |  |  |  |  |  | 
13 | CC(=O)NC1C(OCc2ccccc2)OC(COC(=O)CCCCCCCCCCNC(=O)c2cccc3c(=O)c4ccccc4[nH]c23)C(O)C1OC(C)C(=O)NC(C)C(=O)NC(CCC(N)=O)C(N)=O (stereo not given) | > 100 µM | > 100 µM | > 100 µM | > 100 µM | > 100 µM | > 100 µM | > 100 µM | > 100 µM | > 100 µM | > 100 µM |  |  |  |  |  |  |  |  |  | 
14 | CC(C)(C)n1cc(-c2ccnc(NCCNS(=O)(=O)c3ccc(Br)cc3)c2)c(-c2cccc(O)c2)n1 | 6.07 µM | 4.76 µM | 2.86 µM | 2.85 µM | 3.19 µM | 3.71 µM | 5.32 µM | 3.13 µM | 3.75 µM | 6.16 µM | 2.17 µM | 1.93 µM | 1.44 µM | 0.573 µM | 1.37 µM | 1.93 µM | 2.07 µM | 1.49 µM | 1.52 µM | 0.286 µM
15 | O=C1C=C(Nc2cccc(Br)c2)c2ccccc2C1=O | > 100 µM | > 100 µM | 44.5 µM | 18.3 µM | 27.2 µM | 25.7 µM | 99.4 µM | > 100 µM | > 100 µM | 40.3 µM | 4.16 µM | 5.99 µM | 10.6 µM | 1.52 µM | 4.06 µM | 0.402 µM | 21.7 µM | > 100 µM | 69.1 µM | 10.2 µM
